This is an account of results in ChEMBL document CHEMBL5291721, “A preclinical secondary pharmacology resource illuminates target-adverse drug reaction associations of marketed drugs” (Nat Commun, 2023).

Structures are written as SMILES. Some results are limits rather than exact numbers.

For assay [1], the target named is T1, 5-hydroxytryptamine receptor 1A (Homo sapiens, UniProt P08908).
T1 sequence (P08908 whole entry): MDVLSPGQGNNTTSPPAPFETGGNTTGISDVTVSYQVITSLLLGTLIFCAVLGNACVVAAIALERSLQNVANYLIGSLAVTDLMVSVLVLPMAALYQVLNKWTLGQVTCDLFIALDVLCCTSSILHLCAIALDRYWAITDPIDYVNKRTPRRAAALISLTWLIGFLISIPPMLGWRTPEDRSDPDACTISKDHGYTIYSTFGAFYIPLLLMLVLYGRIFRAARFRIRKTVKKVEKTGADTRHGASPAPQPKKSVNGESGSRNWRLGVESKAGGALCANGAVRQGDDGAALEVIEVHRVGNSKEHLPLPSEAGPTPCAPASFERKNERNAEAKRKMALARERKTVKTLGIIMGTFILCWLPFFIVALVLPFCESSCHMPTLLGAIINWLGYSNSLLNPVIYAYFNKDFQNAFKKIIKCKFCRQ
In kind it is functional, cell-based.

The target of assay [2] is T2, 5-hydroxytryptamine receptor 3A (Homo sapiens, UniProt P46098).
T2 sequence (P46098 whole entry): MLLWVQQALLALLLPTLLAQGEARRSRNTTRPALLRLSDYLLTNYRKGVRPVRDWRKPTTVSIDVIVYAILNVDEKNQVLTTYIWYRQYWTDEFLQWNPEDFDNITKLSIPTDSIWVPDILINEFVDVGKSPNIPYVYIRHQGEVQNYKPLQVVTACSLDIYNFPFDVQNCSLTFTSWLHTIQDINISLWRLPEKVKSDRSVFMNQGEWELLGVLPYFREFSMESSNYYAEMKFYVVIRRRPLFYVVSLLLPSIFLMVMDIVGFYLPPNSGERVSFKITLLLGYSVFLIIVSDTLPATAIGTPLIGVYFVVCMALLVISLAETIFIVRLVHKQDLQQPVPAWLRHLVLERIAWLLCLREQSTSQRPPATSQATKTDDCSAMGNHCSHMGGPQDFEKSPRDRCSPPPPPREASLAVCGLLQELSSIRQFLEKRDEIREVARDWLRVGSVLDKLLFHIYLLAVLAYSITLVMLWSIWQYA
It is filed as functional.

In another assay the target is T3, Adenosine receptor A1 (Homo sapiens, UniProt P30542).
T3 sequence (P30542 whole entry): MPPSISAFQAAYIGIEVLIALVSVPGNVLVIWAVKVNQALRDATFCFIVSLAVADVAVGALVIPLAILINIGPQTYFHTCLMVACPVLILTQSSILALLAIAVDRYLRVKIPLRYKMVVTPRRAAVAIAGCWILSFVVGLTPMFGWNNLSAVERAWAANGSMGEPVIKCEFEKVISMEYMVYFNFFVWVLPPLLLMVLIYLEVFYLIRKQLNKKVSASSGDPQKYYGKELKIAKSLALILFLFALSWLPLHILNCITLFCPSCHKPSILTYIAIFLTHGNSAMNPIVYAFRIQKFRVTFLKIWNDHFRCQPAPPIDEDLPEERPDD

The next assay concerns the target T4, Adenosine receptor A3 (Homo sapiens, UniProt P0DMS8).
T4 sequence (P0DMS8 whole entry): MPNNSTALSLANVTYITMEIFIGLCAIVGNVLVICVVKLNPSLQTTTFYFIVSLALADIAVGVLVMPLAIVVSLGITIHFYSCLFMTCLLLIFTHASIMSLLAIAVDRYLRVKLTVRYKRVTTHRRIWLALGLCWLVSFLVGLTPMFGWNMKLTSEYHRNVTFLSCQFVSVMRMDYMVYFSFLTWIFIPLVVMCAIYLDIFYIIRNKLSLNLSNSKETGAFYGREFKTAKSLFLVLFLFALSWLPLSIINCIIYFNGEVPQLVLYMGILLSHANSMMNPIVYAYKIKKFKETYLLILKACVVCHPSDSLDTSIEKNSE

The target in assay [3] is T5, Alpha-1A adrenergic receptor (Homo sapiens, UniProt P35348).
T5 sequence (P35348 whole entry): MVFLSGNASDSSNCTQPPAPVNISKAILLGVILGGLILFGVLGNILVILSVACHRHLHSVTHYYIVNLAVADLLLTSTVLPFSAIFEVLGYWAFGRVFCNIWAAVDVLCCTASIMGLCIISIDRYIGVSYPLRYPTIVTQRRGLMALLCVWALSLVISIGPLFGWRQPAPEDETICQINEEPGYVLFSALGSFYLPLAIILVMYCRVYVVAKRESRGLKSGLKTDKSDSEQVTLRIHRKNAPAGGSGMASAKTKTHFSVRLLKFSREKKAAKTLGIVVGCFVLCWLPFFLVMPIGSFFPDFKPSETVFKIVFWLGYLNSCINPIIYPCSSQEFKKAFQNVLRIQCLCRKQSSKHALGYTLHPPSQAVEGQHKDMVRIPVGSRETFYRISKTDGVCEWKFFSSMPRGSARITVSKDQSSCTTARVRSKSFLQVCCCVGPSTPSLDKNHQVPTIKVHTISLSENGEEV
It is filed as functional, cell-based.

For the next assay, the target named is T6, Progesterone receptor (Homo sapiens, UniProt P06401).
T6 sequence (P06401 whole entry): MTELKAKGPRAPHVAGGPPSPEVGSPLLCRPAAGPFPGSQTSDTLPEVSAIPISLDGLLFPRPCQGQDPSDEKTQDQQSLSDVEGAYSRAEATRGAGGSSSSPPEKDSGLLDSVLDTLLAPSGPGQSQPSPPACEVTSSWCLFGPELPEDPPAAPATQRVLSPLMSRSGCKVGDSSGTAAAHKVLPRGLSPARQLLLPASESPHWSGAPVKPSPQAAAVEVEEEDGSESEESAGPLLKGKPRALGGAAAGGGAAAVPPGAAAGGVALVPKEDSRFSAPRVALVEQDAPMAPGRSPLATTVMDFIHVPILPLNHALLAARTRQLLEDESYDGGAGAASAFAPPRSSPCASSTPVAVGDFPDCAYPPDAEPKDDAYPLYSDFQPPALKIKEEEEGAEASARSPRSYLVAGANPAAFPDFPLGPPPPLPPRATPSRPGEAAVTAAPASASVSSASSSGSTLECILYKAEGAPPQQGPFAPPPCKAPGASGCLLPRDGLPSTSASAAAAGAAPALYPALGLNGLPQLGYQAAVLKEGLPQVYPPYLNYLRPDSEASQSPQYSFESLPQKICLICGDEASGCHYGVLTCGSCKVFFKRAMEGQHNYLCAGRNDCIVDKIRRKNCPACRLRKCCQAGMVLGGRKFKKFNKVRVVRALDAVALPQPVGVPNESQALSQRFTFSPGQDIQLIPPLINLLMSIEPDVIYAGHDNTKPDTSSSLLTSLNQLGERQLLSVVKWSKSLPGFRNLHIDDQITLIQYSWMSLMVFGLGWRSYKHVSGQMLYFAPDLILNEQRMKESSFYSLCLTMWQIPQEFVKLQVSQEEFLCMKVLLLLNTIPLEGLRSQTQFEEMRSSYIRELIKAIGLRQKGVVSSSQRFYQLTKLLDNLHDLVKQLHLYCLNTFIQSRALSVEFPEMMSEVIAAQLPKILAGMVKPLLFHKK
In kind it is functional.
Note: assay procedure not described here.

For orientation: AC50 means the midpoint of the concentration-response curve, whichever way the signal moves. Low values mean greater potency, high ones weaker potency. With `Oc1cc(O)c(Cl)cn1`, the AC50 (in assay [1]; in assay [2]; at Adenosine receptor A1; at Adenosine receptor A3; in assay [3]) was above 30 µM throughout.
`CCC1(CCC(C)C)C(=O)NC(=O)NC1=O` [AMOBARBITAL]: the AC50 at Progesterone receptor was above 10 µM; in assay [1], above 10 µM; in assay [2], above 30 µM; on Adenosine receptor A1 it was above 10 µM; at Adenosine receptor A3, above 10 µM.
Regarding `COc1ccc(C2C(=O)c3ccccc3C2=O)cc1` [ANISINDIONE], the AC50 on Progesterone receptor is above 30 µM; in assay [1] it was above 10 µM; in assay [2] it was above 30 µM; at Adenosine receptor A1, above 10 µM; on Adenosine receptor A3, above 10 µM.
Take `Cc1cc(=O)n(-c2ccccc2)n1C` [ANTIPYRINE]: the AC50 (in assay [1]; in assay [2]; at Adenosine receptor A1; at Adenosine receptor A3; in assay [3]) was above 30 µM in each case.
With `O=C(O)CCNC(=O)c1ccc(/N=N/c2ccc(O)c(C(=O)O)c2)cc1` [BALSALAZIDE], the AC50 at Progesterone receptor is above 30 µM; in assay [1], above 30 µM; in assay [2], 15 µM; on Adenosine receptor A1, above 30 µM; at Adenosine receptor A3, 27.4 µM.
For `COc1cc(N)c(Cl)cc1C(=O)NC1CCN(CCCOc2ccc(F)cc2)CC1OC` (stereo not given) [CISAPRIDE], the AC50 is above 10 µM in assay [1]; above 30 µM in assay [2]; above 30 µM at Adenosine receptor A1; above 30 µM at Adenosine receptor A3; above 30 µM in assay [3].
For `CCOC(=O)C(C)(C)Oc1ccc(Cl)cc1` [CLOFIBRATE], the AC50 in assay [1] is above 10 µM; in assay [2] it was above 30 µM; at Adenosine receptor A1 it was above 30 µM; on Adenosine receptor A3, above 30 µM; in assay [3], above 30 µM.
As for `C[C@@H]1C[C@H]2[C@@H]3CCC4=CC(=O)C=C[C@]4(C)[C@@]3(F)[C@@H](O)C[C@]2(C)[C@@]1(O)C(=O)CO` [DEXAMETHASONE], the concentration at half-maximal activity (AC50) in assay [1] is above 10 µM; in assay [2] it was above 30 µM; at Adenosine receptor A1 it was above 30 µM; at Adenosine receptor A3, above 30 µM.
For the compound `CCCCOc1ccc(C(=O)CCN2CCCCC2)cc1` [DYCLONINE], the AC50 is above 10 µM in assay [1]; above 10 µM in assay [2]; above 30 µM on Adenosine receptor A1; above 30 µM on Adenosine receptor A3; above 30 µM in assay [3].
Turning to `CC(C)NC[C@H](O)COc1ccc(CC(N)=O)cc1` [ESATENOLOL], the AC50 in assay [1] was above 10 µM; in assay [2], above 10 µM; at Adenosine receptor A1, above 30 µM; at Adenosine receptor A3, above 30 µM.
As to `O=C1Nc2ccc(Cl)cc2C(c2ccccc2Cl)=NC1O` (stereo not given) [LORAZEPAM], the AC50 in assay [1] is above 10 µM; in assay [2], above 30 µM; at Adenosine receptor A1 it was above 30 µM; on Adenosine receptor A3, above 30 µM; in assay [3], above 30 µM.
Take `CN1CCN=C(c2ccccc2)c2cc(Cl)ccc21` [MEDAZEPAM]: the AC50 is above 30 µM in assay [1]; above 30 µM in assay [2]; above 30 µM on Adenosine receptor A1; 15 µM on Adenosine receptor A3; above 30 µM in assay [3].
In the case of `CC(=O)[C@H]1CC[C@H]2[C@@H]3C[C@H](C)C4=CC(=O)CC[C@]4(C)[C@H]3[C@@H](O)C[C@]12C` [MEDRYSONE], the AC50 in assay [1] is above 10 µM; in assay [2] it was above 30 µM; at Adenosine receptor A1, above 10 µM; at Adenosine receptor A3, above 10 µM; in assay [3], above 30 µM.
Consider `Cc1ccnc2c1NC(=O)c1cccnc1N2C1CC1` [NEVIRAPINE], for which the AC50 in assay [1] is above 10 µM; in assay [2], above 10 µM; on Adenosine receptor A1, 31.2 µM; at Adenosine receptor A3, 1.02 µM; in assay [3], above 30 µM.
In the case of `CO[C@H]1C[C@H](O[C@H]2CC[C@@]3(C)[C@H](CC[C@@H]4[C@@H]3CC[C@]3(C)[C@@H](C5=CC(=O)OC5)[C@@H](OC(C)=O)C[C@]43O)C2)O[C@@H](C)[C@@H]1O` [OLEANDRIN], the AC50 in assay [1], in assay [2] and in assay [3] was above 30 µM throughout.
Take `C[C@]12C/C(=C/O)C(=O)C[C@@H]1CC[C@@H]1[C@@H]2CC[C@@]2(C)[C@H]1CC[C@]2(C)O` [OXYMETHOLONE]: the AC50 in assay [1] was above 30 µM; in assay [2] it was above 30 µM; at Adenosine receptor A1, above 30 µM; on Adenosine receptor A3, 8.2 µM; in assay [3], above 30 µM.
In the case of `Fc1ccc([C@@H]2CCNC[C@H]2COc2ccc3c(c2)OCO3)cc1` [PAROXETINE], the AC50 in assay [1] was 17 µM; in assay [2] it was above 10 µM; at Adenosine receptor A1, above 30 µM; at Adenosine receptor A3 it was 22.5 µM.
Turning to `CCC(=O)O[C@](Cc1ccccc1)(c1ccccc1)[C@H](C)CN(C)C` [PROPOXYPHENE], the AC50 in assay [1] is above 10 µM; in assay [2] it was above 30 µM; at Adenosine receptor A1 it was above 30 µM; at Adenosine receptor A3, above 30 µM; in assay [3], above 30 µM.
Consider `O=c1c(O)c(-c2ccc(O)c(O)c2)oc2cc(O)cc(O)c12` [QUERCETIN], for which the concentration at half-maximal activity (AC50) in assay [1] was above 30 µM; in assay [2], above 30 µM; on Adenosine receptor A3, 4.2 µM.
`CCOC(=O)c1ccc(C#Cc2ccc3c(c2)C(C)(C)CCS3)nc1` [TAZAROTENE]: the AC50 (in assay [1]; in assay [2]; at Adenosine receptor A1; on Adenosine receptor A3; in assay [3]) was above 30 µM each time.
With `CCCCCCCC(=O)CC[C@@H]1[C@@H](C/C=C\CCCC(=O)OC(C)C)[C@@H](O)C[C@H]1O` [UNOPROSTONE ISOPROPYL], the AC50 amounted to 21 µM at Progesterone receptor and 5.6 µM at Adenosine receptor A3.
